In patent publication US20160193240A1, “Ulmoside-A: Useful For Prevention Or Cure Of Metabolic Diseases” (COUNCIL OF SCIENTIFIC & INDUSTRIAL RESEARCH, priority 2013, published 2016):
Marks after values point to notes of the source that are not given here.

Columns and labels:
[1] = test system: wistar rats; assay: Dexamethasone-mediated reduction in serum osteocalcin in rats (ELISA); type: in vivo, rat; conditions: Dex + ULMA, 14 days
Method: Food intake was measured daily and the rats were weighed each week. The rats were fasted overnight (O/N) on day 14th and on day 15th oral glucose tolerance test was performed. Following oral glucose tolerance test (OGTT), rats were kept with food and water ad libitum for one day. On day 16th, rats were fasted again O/N and then euthanized. At autopsy, from 5 animals/group, tissues were collected and snap frozen in liquid nitrogen. Blood was collected from cardiac punctures. Plasma was separated from whole blood by centrifugation at 3000 rpm for 20 min immediately after collection of blood and stored at −80° C. until further analysis. […] (quadriceps) skeletal muscles were processed for RNA and protein extraction, followed by quantitative real-time PCR (QRT-PCR) analysis. Two animals from each group were used for photography post autopsy.

[2] = test system: C2C12 myotubes; assay: Western blot of PGC-1α, PPAR and GLUT4 in C2C12 myotubes; type: cell-based, mouse; conditions: 10 nM, 24 or 48 hours
Method: B. ULMA induces protein levels of PGC-1α, PPARα and Glut4. C2C12 myotubes in 10 cm dish were treated with vehicle (DMSO) or 10 nM ULMA in DMSO for 24 or 48 h followed by western blotting with indicated antibodies. Data is representative of three independent experiments showing identical pattern.
Adiponectin enhances transcription of genes regulating fatty acid transport, fatty acid-oxidation and mitochondrial uncoupling proteins in skeletal muscle and myotubes (T. Kadowaki, T. Yamauchi, N. Kubota, K. Hara, K. Ueki, K. Tobe. J Clin Invest. 116(7): 1784-92. 2006; S. Dridi, M. Taouis. Journal of Nutritional Biochemistry 20 (2009): 831-839. 2009; M. Iwabu, T. Yamauchi, M. Okada-Iwabu, K. Sato, T. Nakagawa, M. Funata, M. Yamaguchi, S. Namiki, R. Nakayama, M. Tabata, H. Ogata, N. Kubota, I. Takamoto, Y. K. Hayashi, N. Yamauchi, H. Waki, M. Fukayama, I. Nishino, K. Tokuyama, K. Ueki, Y. Oike, S. Ishii, K. Hirose, T. Shimizu, K. Touhara, T. Kadowaki. Nature; 464(7293):1313-1319. 2010). The ability of ULMA to influence expression of these genes were checked in c2c12 myotubes. C2C12 myotubes in 6 well plates were treated with 10 nM ULMA or vehicle (DMSO) for 12 hours or 24 hours. Following treatment, the cells were washed with ice-cold PBS and RNA was extracted using Trizol (Ambion) according to manufacturer's instructions. The RNAs were quantitated using a spectrophotometer (nanophotometer; Implen GMBH) and 1 μg RNA was used to prepare cDNA using a cDNA synthesis kit (Applied Biosystems). cDNAs were then used for quantitative real-time PCR for indicated genes (FIG. 3A) using Veriquest SYBR green QRT-PCR mastermix (US Biologicals) and a Roche lightcycler 480 thermal cycler (Roche Diagnostics). Beta-actin was used as normalizing control. The relative mRNA level was quantitated using ddCT method. […] Adiponectin is also known to induce muscle and adipose glucose transporter 4 (GLUT4) expressions; and the ability of ULMA to induce the expression of GLUT4, PPAR and PGC-1α was investigated by western blotting. […]

## O=C1c2c(cc(O)c([C@@H]3O[C@H](CO)[C@@H](O)[C@H](O)[C@H]3O)c2O)O[C@@H](c2ccc(O)c(O)c2)[C@@H]1O [ULMA, (2S,3S)-(+)-3′,4′,5,7-tetrahydroxydihydroflavonol-6-C-β-D-glucopyranoside]
[1]
  Osteocalcin (ng/ml): 387.7 ± 16.1^a ng/ml
[2]
  GLUT4 protein level: induced protein levels
  PGC-1α protein level: induced protein levels
  PPAR protein level: induced protein levels
